One series deals with MRSA-1. Nature of the series: MIC broth microdilution assay. Type of series: cell-based, Staphylococcus aureus. Conditions: for MIC: Staphylococcus aureus, MRSA. On the technique in general: Dilution methods test growth across graded concentrations, often in twofold steps.
Series [1] has as its system MRSA BAA-1707. Put plainly: Calgary Biofilm Device (CBD) MBC/MBEC assay. Type of series: cell-based, Staphylococcus aureus.
For series [2], the system named is MRSA BAA-1707. Put plainly: MIC broth microdilution assay. In kind it is cell-based, Staphylococcus aureus.
In the next series the test system is MRSA-2. Put plainly: MIC broth microdilution assay. Type of series: cell-based, Staphylococcus aureus. Conditions: Table 1; read-out: MIC MRSA-2.
In series [3] the test system is MRSA BAA-1707. Nature of the series: MIC assay with metal(II) cation co-treatment. Type of series: cell-based, Staphylococcus aureus.
For series [4], the system named is MRSE 35984. Nature of the series: MIC broth microdilution assay. Type of series: cell-based, Staphylococcus epidermidis.
The test system of series [5] is MRSE 35984. Nature of the series: Calgary Biofilm Device (CBD) MBC/MBEC assay. In kind it is cell-based, Staphylococcus epidermidis. Conditions: CBD.
The next series concerns MRSA-1707 biofilms. Put plainly: CBD pulse biofilm eradication experiment. Type of series: cell-based, Staphylococcus aureus. As to conditions: two subsequent 24 hour compound treatment phases.
Series [6] has as its system VRE 700221. Put plainly: MIC broth microdilution assay. In kind it is cell-based, Enterococcus faecium.
The test system of series [7] is VRE 700221. Nature of the series: Calgary Biofilm Device (CBD) MBC/MBEC assay. As to conditions: CBD; for VRE 700221 MBEC: biofilm eradication; for MBC: planktonic killing, read-out: VRE 700221 MBC. In kind it is cell-based, Enterococcus faecium.
For the next series, the system named is MtB H37Ra. Put plainly: MIC assay for Mycobacterium tuberculosis. In kind it is cell-based. As to conditions: 168 h, seven days.
The subject of a further series is MRSA BAA-44. Nature of the series: MIC broth microdilution assay. Type of series: cell-based. Conditions: Staphylococcus aureus; Table 1; read-out: MIC MRSA BAA-44.
The subject of a further series is four MRSA isolates. Put plainly: MIC assays, panel of four MRSA isolates. Type of series: cell-based. Conditions: Staphylococcus aureus, range over isolates, read-out: MIC against a panel of four MRSA isolates.
Series [8] can be described thus: LDH release assay for HeLa cytotoxicity. Type of series: cell-based. Conditions: human, HeLa cells; LDH release, 24 hours; tested at 25, 50 and 100 µM; read-out: HeLa Cytotox. IC50.
The nature of series [9]: Hemolysis assay with red blood cells. Conditions: human, pH 7.2.
A further series in a line: UV-Vis metal(II) binding. In kind it is physicochemical. Conditions: UV-Vis kinetics, compared to HP 1. The procedure:
The rates of halogenated phenazine-copper(II) complex formation were independently evaluated via UV-Vis spectrometry following addition of 0.5 equivalents copper(II) sulfate to stirring solutions of HP (10 mM, 4 mL) in dimethyl sulfoxide. Spectral scanning was performed from 200 to 800 nm in 2 nm increments. The disappearance of HPs 1, 17 and 22 was observed over the indicated time points. The halogenated phenazine-copper(II) complex formation yielded a loss in absorbance due to precipitation.

[10] abbreviates: CBD, planktonic killing, 24 hours treatment, read-out: MRSA BAA-1707 MBC.
[11] abbreviates: Table 1, three independent experiments.
Setting [12] is: Table 1, read-out: MIC MRSE 35984.
Setting [13] is: Table 3, read-out: MRSE 35984 MIC.

SMILES strings stand for the structures. ≈ marks a conversion by molar mass, not a printed value. Read-outs that look alike come from different tables or passages of the source. Marks after values point to notes of the source that are not given here.

For the molecule `c1ccc(CN(CCN(Cc2ccccn2)Cc2ccccn2)Cc2ccccn2)nc1` [TPEN, reference compound], the “MIC MRSA-1” value in the series on MRSA-1 (Table 1) was 75^a µM. Moreover, the MBC with MRSA BAA-1707 [1] (setting [10]) stood at 375 µM (≈ 159 µg/mL); in the series on MRSA BAA-1707 [1] (Figure 7A, single CBD plate, read-out: MRSA-1707 Planktonic Eradication MBC) it was 250 µM (≈ 106 µg/mL); with MRSA BAA-1707 [1] (supplement page 27, first CBD plate, read-out: MRSA Planktonic Killing MBC), 250 µM (≈ 106 µg/mL); in the series with MRSE 35984 [5] (planktonic killing, read-out: MRSE 35984 MBC) it was 250 µM (≈ 106 µg/mL). Also, in the series on MRSA BAA-1707 [1] (Figure 7A, single CBD plate), the “MRSA-1707 Biofilm Eradication MBEC” value is more than 2000 µM. For the same molecule, in the series on MRSA BAA-1707 [1] (supplement page 27, first CBD plate), the “MRSA Biofilm Eradication MBEC” value is recorded as more than 2000 µM. For the same molecule, the “MIC MRSA BAA-1707” value against MRSA BAA-1707 [2] (setting [11]) is given as 46.9^a µM. Further, the “MRSA BAA-1707 MIC” value in the series with MRSA BAA-1707 [2] (Table 3) is 46.9^a µM. In addition, the MIC with MRSA-2 is 50 µM (≈ 21.2 µg/mL); in the series on MRSA BAA-1707 [3] (Table 2, MRSA BAA-1707, no metal(II) cation added), 46.9^a µM; with MRSA BAA-1707 [3] (copper(II) at 200 µM co-treatment, read-out: MIC w/Cu2+) it was 500 µM; in the series with MRSA BAA-1707 [3] (iron(II) at 200 µM co-treatment, read-out: MIC w/Fe2+), 125 µM; in the series on MRSA BAA-1707 [3] (magnesium(II) at 200 µM co-treatment, read-out: MIC w/Mg2+), 62.5 µM; in the series on MRSA BAA-1707 [3] (zinc(II) at 200 µM co-treatment, read-out: MIC w/Zn2+), 250 µM. Besides, the MIC in the series with MRSE 35984 [4] (setting [12]) and in the series on MRSE 35984 [4] (setting [13]) was 12.5 µM (≈ 5.31 µg/mL) each time. In addition, the “MRSE 35984 MBEC” value with MRSE 35984 [5] (biofilm eradication) is given as more than 2000 µM. In addition, the “Hemolysis at 200 µM (%)” value in the series with human red blood cells is reported as not above 1%.
Consider `CCCCCCCCCCCCCCCC[N+](C)(C)Cc1ccccc1.[Cl-]` [BAC-16, reference compound], for which, in the series on MRSA BAA-1707 [1] (CBD, biofilm eradication, 24 hours treatment), the “MRSA BAA-1707 MBEC” value is 15.6 µM. Moreover, the values for the MBC in the series with MRSA BAA-1707 [1] (setting [10]) and with VRE 700221 [7] were 31.3 µM and 5.9 µM, respectively. Further, the MIC with MRSA BAA-1707 [2] (Table 1, three independent experiments, read-out: MIC MRSA BAA-1707) was found to be 1.56 µM; with MRSA BAA-1707 [2] (Table 3, read-out: MRSA BAA-1707 MIC), 1.56 µM; in the series with MRSE 35984 [4] (setting [12]), 1.56 µM; in the series with MRSE 35984 [4] (setting [13]), 1.56 µM; in the series with VRE 700221 [6] (Table 1, read-out: MIC VRE 700221), 3.13 µM; in the series on VRE 700221 [6] (Table 3, read-out: VRE 700221 MIC), 3.13 µM. The “MBEC, pulse treatment” value in the series on MRSA-1707 biofilms is 25 µM. The “VRE 700221 MBEC” value in the series with VRE 700221 [7] worked out at 3.0 µM.
For orientation: IC50 means the concentration that inhibits the measured activity by half. Turning to `Oc1c(Br)cc(Br)c2nc3c(Cl)cccc3nc12` [HP 21], the MIC with MtB H37Ra is 50 µM (≈ 19.4 µg/mL); in the series with MRSA-1 (Table 1, read-out: MIC MRSA-1), not above 0.1 µM; with MRSA-1 (single plate shown as picture, read-out: MIC (µM), MIC Assay Against MRSA-1), 0.1 µM (≈ 0.0388 µg/mL); in the series with MRSA BAA-44, 0.59 µM (≈ 0.229 µg/mL); with MRSA BAA-1707 [2] (Staphylococcus aureus, Table 1, three independent experiments, read-out: MIC MRSA BAA-1707) it was 0.05 to 0.3 µM (≈ 0.0194 to 0.117 µg/mL); in the series with MRSA BAA-1707 [2] (Staphylococcus aureus, Table 3, read-out: MRSA BAA-1707 MIC), 0.08 µM (≈ 0.0311 µg/mL). The MIC is 0.1 µM (≈ 0.0388 µg/mL) in the series with MRSA BAA-1707 [2] (Staphylococcus aureus, single plate shown as picture, read-out: MIC (µM), MIC Assay against MRSA BAA-1707); 0.05 to 0.59 µM (≈ 0.0194 to 0.229 µg/mL) in the series with four MRSA isolates; 0.1 µM in the series with MRSA BAA-1707 [3] (Staphylococcus aureus, Fe(II) co-treatment plate, lanes without metal, read-out: MIC); 0.1 µM with MRSA BAA-1707 [3] (Staphylococcus aureus, Table 2, MRSA BAA-1707, no metal(II) cation added, read-out: MIC); 0.1 µM with MRSA BAA-1707 [3] (Staphylococcus aureus, Zn(II) extended plate assay, lanes without metal, read-out: MIC); 6.25 µM in the series with MRSA BAA-1707 [3] (Staphylococcus aureus, copper(II) at 200 µM co-treatment, read-out: MIC w/Cu2+). The MIC in the series with MRSA BAA-1707 [3] (Staphylococcus aureus, iron(II) at 200 µM co-treatment, read-out: MIC w/Fe2+) turned out to be 0.59 µM; with MRSA BAA-1707 [3] (Staphylococcus aureus, magnesium(II) at 200 µM co-treatment, read-out: MIC w/Mg2+) it was 0.15 µM; with MRSA BAA-1707 [3] (Staphylococcus aureus, zinc(II) at 200 µM co-treatment, read-out: MIC w/Zn2+), 0.15 µM; in the series on MRSA BAA-1707 [3] (extended plate assay, 200 µM Zn(II), read-out: MIC (µM) + Zn(II)) it was 0.10 µM; with MRSA BAA-1707 [3] (single plate, 200 µM Fe(II), read-out: MIC (µM) + Fe(II)) it was 0.78 µM; in the series on MRSE 35984 [4] (Staphylococcus epidermidis, MRSE, Table 3, read-out: MRSE 35984 MIC), 0.3 µM (≈ 0.117 µg/mL). For the same molecule, the MIC turned out to be 0.2 µM (≈ 0.0777 µg/mL) in the series with MRSE 35984 [4] (Staphylococcus epidermidis, MRSE, single plate shown as picture, read-out: MIC (µM), MIC Assay Against MRSE 35984); 1.56 µM (≈ 0.606 µg/mL) with VRE 700221 [6] (Enterococcus, VRE, Table 3, read-out: VRE 700221 MIC); 1.56 µM (≈ 0.606 µg/mL) in the series on VRE 700221 [6] (Enterococcus, VRE, single plate shown as picture, read-out: MIC (µM), MIC Assay Against VRE 700221). The MBC in the series with MRSA BAA-1707 [1] (Staphylococcus aureus, 24 h, CBD, planktonic killing, 24 hours treatment, read-out: MRSA BAA-1707 MBC) was 6.25 µM (≈ 2.43 µg/mL); in the series with MRSA BAA-1707 [1] (Staphylococcus aureus, 24 h, supplement page 27, second CBD plate, read-out: MRSA Planktonic Killing MBC), 6.25 µM (≈ 2.43 µg/mL); in the series on VRE 700221 [7] (Enterococcus, VRE), 25 µM (≈ 9.71 µg/mL). Also, in the series with MRSA BAA-1707 [2] (setting [11]), the “MIC MRSA BAA-1707” value is 0.08^a µM. The IC50 at 24 h in series [8] was more than 100 µM. For the same molecule, the “VRE 700221 MBEC” value in the series with VRE 700221 [7] is 25/25 µM. Further, in series [9], the hemolysis at 1 h, 200 µM was not above 1%. Besides, the “rate of copper(II) chelation” value in “UV-Vis metal(II) binding” was “faster rate than HP 1”.
